{"source": "PubChem BioAssay (NCI)", "test_in_all_cases": "NCI-60 cell line screen, 48 h", "key": {"786-0 renal": {"system": "786-0 renal"}, "A549 NSCLC": {"system": "A549 NSCLC"}, "ACHN renal": {"system": "ACHN renal"}, "CAKI-1 renal": {"system": "CAKI-1 renal"}, "COLO 205 colon": {"system": "COLO 205 colon"}, "DLD-1 colon": {"system": "DLD-1 colon"}, "DMS 114 small cell lung": {"system": "DMS 114 small cell lung"}, "EKVX NSCLC": {"system": "EKVX NSCLC"}, "HCT-116 colon": {"system": "HCT-116 colon"}, "HCT-15 colon": {"system": "HCT-15 colon"}, "HL-60(TB) leukemia": {"system": "HL-60(TB) leukemia"}, "HOP-18 NSCLC": {"system": "HOP-18 NSCLC"}, "HOP-62 NSCLC": {"system": "HOP-62 NSCLC"}, "HT29 colon": {"system": "HT29 colon"}, "IGROV1 ovarian": {"system": "IGROV1 ovarian"}, "K-562 leukemia": {"system": "K-562 leukemia"}, "KM12 colon": {"system": "KM12 colon"}, "KM20L2 colon": {"system": "KM20L2 colon"}, "LOX IMVI melanoma": {"system": "LOX IMVI melanoma"}, "LXFL 529 NSCLC": {"system": "LXFL 529 NSCLC"}, "M14 melanoma": {"system": "M14 melanoma"}, "M19-MEL melanoma": {"system": "M19-MEL melanoma"}, "MALME-3M melanoma": {"system": "MALME-3M melanoma"}, "MOLT-4 leukemia": {"system": "MOLT-4 leukemia"}, "NCI-H226 lung": {"system": "NCI-H226 lung"}, "NCI-H23 lung": {"system": "NCI-H23 lung"}, "NCI-H460 lung": {"system": "NCI-H460 lung"}, "NCI-H522 lung": {"system": "NCI-H522 lung"}, "OVCAR-3 ovarian": {"system": "OVCAR-3 ovarian"}, "OVCAR-4 ovarian": {"system": "OVCAR-4 ovarian"}, "OVCAR-5 ovarian": {"system": "OVCAR-5 ovarian"}, "OVCAR-8 ovarian": {"system": "OVCAR-8 ovarian"}, "RPMI-8226 leukemia": {"system": "RPMI-8226 leukemia"}, "RXF 393 renal": {"system": "RXF 393 renal"}, "SF-295 CNS": {"system": "SF-295 CNS"}, "SF-539 CNS": {"system": "SF-539 CNS"}, "SK-MEL-2 melanoma": {"system": "SK-MEL-2 melanoma"}, "SK-MEL-28 melanoma": {"system": "SK-MEL-28 melanoma"}, "SK-MEL-5 melanoma": {"system": "SK-MEL-5 melanoma"}, "SK-OV-3 ovarian": {"system": "SK-OV-3 ovarian"}, "SN12C renal": {"system": "SN12C renal"}, "SNB-19 CNS": {"system": "SNB-19 CNS"}, "SNB-75 CNS": {"system": "SNB-75 CNS"}, "SNB-78 CNS": {"system": "SNB-78 CNS"}, "SR leukemia": {"system": "SR leukemia"}, "SW-620 colon": {"system": "SW-620 colon"}, "TK-10 renal": {"system": "TK-10 renal"}, "U251 CNS": {"system": "U251 CNS"}, "UACC-257 melanoma": {"system": "UACC-257 melanoma"}, "UACC-62 melanoma": {"system": "UACC-62 melanoma"}, "UO-31 renal": {"system": "UO-31 renal"}, "XF 498 CNS": {"system": "XF 498 CNS"}}, "note": "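Each compound was tested at five concentrations against cells in 96-well plates for 48 hours. TGI: concentration producing complete growth inhibition.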", "data": [{"molecule": "NCCCCCCNCc1cccc2ccccc12", "values": [{"measurement": "TGI", "setting": "786-0 renal", "result": "> 100", "unit": "µM"}, {"measurement": "TGI", "setting": "A549 NSCLC", "result": "> 100", "unit": "µM"}, {"measurement": "TGI", "setting": "ACHN renal", "result": "> 100", "unit": "µM"}, {"measurement": "TGI", "setting": "CAKI-1 renal", "result": "> 100", "unit": "µM"}, {"measurement": "TGI", "setting": "COLO 205 colon", "result": "> 100", "unit": "µM"}, {"measurement": "TGI", "setting": "DLD-1 colon", "result": "> 100", "unit": "µM"}, {"measurement": "TGI", "setting": "DMS 114 small cell lung", "result": "> 100", "unit": "µM"}, {"measurement": "TGI", "setting": "EKVX NSCLC", "result": "> 100", "unit": "µM"}, {"measurement": "TGI", "setting": "HCT-116 colon", "result": "> 100", "unit": "µM"}, {"measurement": "TGI", "setting": "HCT-15 colon", "result": "> 100", "unit": "µM"}, {"measurement": "TGI", "setting": "HL-60(TB) leukemia", "result": "> 100", "unit": "µM"}, {"measurement": "TGI", "setting": "HOP-18 NSCLC", "result": "> 100", "unit": "µM"}, {"measurement": "TGI", "setting": "HOP-62 NSCLC", "result": "> 100", "unit": "µM"}, {"measurement": "TGI", "setting": "HT29 colon", "result": "> 100", "unit": "µM"}, {"measurement": "TGI", "setting": "IGROV1 ovarian", "result": "> 100", "unit": "µM"}, {"measurement": "TGI", "setting": "K-562 leukemia", "result": 51.1, "unit": "µM"}, {"measurement": "TGI", "setting": "KM12 colon", "result": "> 100", "unit": "µM"}, {"measurement": "TGI", "setting": "KM20L2 colon", "result": "> 100", "unit": "µM"}, {"measurement": "TGI", "setting": "LOX IMVI melanoma", "result": "> 100", "unit": "µM"}, {"measurement": "TGI", "setting": "LXFL 529 NSCLC", "result": "> 100", "unit": "µM"}, {"measurement": "TGI", "setting": "M14 melanoma", "result": 34.3, "unit": "µM"}, {"measurement": "TGI", "setting": "M19-MEL melanoma", "result": "> 100", "unit": "µM"}, {"measurement": "TGI", "setting": "MALME-3M melanoma", "result": 35.6, "unit": "µM"}, {"measurement": "TGI", "setting": "MOLT-4 leukemia", "result": "> 100", "unit": "µM"}, {"measurement": "TGI", "setting": "NCI-H226 lung", "result": "> 100", "unit": "µM"}, {"measurement": "TGI", "setting": "NCI-H23 lung", "result": "> 100", "unit": "µM"}, {"measurement": "TGI", "setting": "NCI-H460 lung", "result": "> 100", "unit": "µM"}, {"measurement": "TGI", "setting": "NCI-H522 lung", "result": "> 100", "unit": "µM"}, {"measurement": "TGI", "setting": "OVCAR-3 ovarian", "result": "> 100", "unit": "µM"}, {"measurement": "TGI", "setting": "OVCAR-4 ovarian", "result": "> 100", "unit": "µM"}, {"measurement": "TGI", "setting": "OVCAR-5 ovarian", "result": "> 100", "unit": "µM"}, {"measurement": "TGI", "setting": "OVCAR-8 ovarian", "result": "> 100", "unit": "µM"}, {"measurement": "TGI", "setting": "RPMI-8226 leukemia", "result": "> 100", "unit": "µM"}, {"measurement": "TGI", "setting": "RXF 393 renal", "result": "> 100", "unit": "µM"}, {"measurement": "TGI", "setting": "SF-295 CNS", "result": "> 100", "unit": "µM"}, {"measurement": "TGI", "setting": "SF-539 CNS", "result": "> 100", "unit": "µM"}, {"measurement": "TGI", "setting": "SK-MEL-2 melanoma", "result": "> 100", "unit": "µM"}, {"measurement": "TGI", "setting": "SK-MEL-28 melanoma", "result": "> 100", "unit": "µM"}, {"measurement": "TGI", "setting": "SK-MEL-5 melanoma", "result": "> 100", "unit": "µM"}, {"measurement": "TGI", "setting": "SK-OV-3 ovarian", "result": "> 100", "unit": "µM"}, {"measurement": "TGI", "setting": "SN12C renal", "result": "> 100", "unit": "µM"}, {"measurement": "TGI", "setting": "SNB-19 CNS", "result": "> 100", "unit": "µM"}, {"measurement": "TGI", "setting": "SNB-75 CNS", "result": "> 100", "unit": "µM"}, {"measurement": "TGI", "setting": "SNB-78 CNS", "result": "> 100", "unit": "µM"}, {"measurement": "TGI", "setting": "SR leukemia", "result": "> 100", "unit": "µM"}, {"measurement": "TGI", "setting": "SW-620 colon", "result": "> 100", "unit": "µM"}, {"measurement": "TGI", "setting": "TK-10 renal", "result": "> 100", "unit": "µM"}, {"measurement": "TGI", "setting": "U251 CNS", "result": "> 100", "unit": "µM"}, {"measurement": "TGI", "setting": "UACC-257 melanoma", "result": "> 100", "unit": "µM"}, {"measurement": "TGI", "setting": "UACC-62 melanoma", "result": "> 100", "unit": "µM"}, {"measurement": "TGI", "setting": "UO-31 renal", "result": "> 100", "unit": "µM"}, {"measurement": "TGI", "setting": "XF 498 CNS", "result": "> 100", "unit": "µM"}]}]}
